Legend:
[1] = target: T1, human DGAT1 (Homo sapiens, UniProt O75907); assay: substrate concentration titration in TLC assay, DGAT1; type: biochemical; conditions: Michaelis Menton fit, duplicate
T1 construct: made in house; host or cells: Sf9 insect cells (baculovirus), used as membrane extracts
T1 sequence (O75907 1-488): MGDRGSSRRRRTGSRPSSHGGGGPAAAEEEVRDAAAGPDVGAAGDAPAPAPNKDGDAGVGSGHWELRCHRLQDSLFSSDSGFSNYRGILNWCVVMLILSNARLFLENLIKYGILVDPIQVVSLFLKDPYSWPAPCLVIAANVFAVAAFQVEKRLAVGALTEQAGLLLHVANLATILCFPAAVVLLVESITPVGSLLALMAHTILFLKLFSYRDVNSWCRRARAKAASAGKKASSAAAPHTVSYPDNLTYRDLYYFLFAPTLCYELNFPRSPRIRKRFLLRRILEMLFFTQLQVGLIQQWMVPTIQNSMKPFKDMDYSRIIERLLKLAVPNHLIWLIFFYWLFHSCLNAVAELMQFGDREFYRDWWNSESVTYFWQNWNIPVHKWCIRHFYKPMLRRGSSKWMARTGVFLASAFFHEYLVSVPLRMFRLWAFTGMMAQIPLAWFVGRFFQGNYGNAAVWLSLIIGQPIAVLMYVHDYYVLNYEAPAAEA
Procedure: (§1) The data shown in FIG. 1B correspond to a TLC plate assay and various substrates that could be used in the assay. Aliquots of membrane extracts (30 μg) derived from either wild type baculovirus infected Sf9 cells (WT) (lanes 4,5) infected with recombinant human DGAT1 baculovirus (DGAT1) (lanes 6-8), or with recombinant human MGAT3 baculovirus (MGAT3) (lanes 1-3), were subjected to enzyme reactions in Buffer A (150 mM potassium phosphate buffer, pH 7.4) with 50 μM [^14C]oleoyl-CoA (40,000 d.p.m./nmol specific activity) as the acyl donor, and 100 μM 1,2-dioleoylglycerol (DOG), or 2-monooleoylglycerol (2-MOG) as the acyl acceptor (delivered by acetone, final vehicle concentration at 2%).
(§2) Assays were carried out for 10 minutes as described in (Cheng et al., Biochem J. 2001 Nov. 1;359 (Pt 3):707-14.). The products were resolved by TLC in a solvent comprising hexane: ether: acetic acid in a ration of 170:30:1, respectively. The products were visualized by a Phosphoimage exposure. […]
(§3) Briefly, substrate efficiency was determined from results obtained using a TLC acyltransferase assay. […] The enzymatic products were quantified and the kinetic parameters Vmax and Km were derived using the Michaelis Menton Equation as applied by Prism® software. […]

[2] = target: T2, human MGAT3 (Homo sapiens, UniProt Q86VF5); assay: substrate concentration titration in TLC assay, MGAT3; type: biochemical; conditions: Michaelis Menton fit, duplicate
T2 construct: made in house; host or cells: Sf9 insect cells (baculovirus), used as membrane extracts
T2 sequence (Q86VF5 1-341): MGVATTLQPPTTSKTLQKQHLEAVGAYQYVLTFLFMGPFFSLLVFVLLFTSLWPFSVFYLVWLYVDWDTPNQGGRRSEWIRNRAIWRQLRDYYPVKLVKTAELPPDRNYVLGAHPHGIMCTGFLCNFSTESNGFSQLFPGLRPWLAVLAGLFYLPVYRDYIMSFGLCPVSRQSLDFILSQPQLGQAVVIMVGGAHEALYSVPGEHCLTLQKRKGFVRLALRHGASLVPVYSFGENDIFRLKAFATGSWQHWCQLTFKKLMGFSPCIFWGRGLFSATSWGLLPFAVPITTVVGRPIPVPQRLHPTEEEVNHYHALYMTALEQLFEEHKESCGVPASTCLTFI
Procedure: as §1, §2, §3

Km with MOG relative to 1,2-sn-dioleoylglycerol [1]: significantly reduced
Vmax with MOG relative to 1,2-sn-dioleoylglycerol [1]: more than 20 fold
Km with MOG relative to 1,2-sn-dioleoylglycerol [2]: significantly reduced
Vmax with MOG relative to 1,2-sn-dioleoylglycerol [2]: more than 50 fold
Compound: CCCCCCCC/C=C\CCCCCCCC(=O)OC(CO)CO [MOG, 2-monooleoylglycerol]
